# According to patent EP3227262B1, “SULFIDE ALKYL AND PYRIDYL REVERSE SULFONAMIDE COMPOUNDS FOR HBV TREATMENT” (Novira Therapeutics Inc., priority 2014, dated 2016):
# System: HBV
# Assay: Inhibition of HBV replication dot-blot assay in HBV-producing hepatoma cell line
# Assay type: cell-based
# Conditions: Hepatitis B virus, 144 h; activity in Dot-Blot assay; HepG2-2.2.15 cells; reduction in HBV DNA levels, six days
# Method: Compounds active in the HBV assembly assay are tested for their activity and toxicity in cellular assay. In the first anti-viral assay, the ability of compounds to inhibit HBV replication in an HBV-producing hepatoma cell line using the dot-blot method is evaluated.
# (§1) Briefly, confluent monolayers of HepG2-2.2.15 cells are incubated with complete medium containing various concentrations of a test compound. Three days later, the culture medium is replaced with fresh medium containing the appropriately diluted test compound. Six days following the initial administration of the test compound, the cell culture supernatant is collected, and cell lysis is performed. The samples are applied onto Nylos membranes and DNA is immobilized to the membrane by UV cross-linking. After pre-hybridization, the HBV probe is added and the hybridization is performed overnight. The membranes are exposed to the KODAK films; antiviral activity is calculated from the reduction in HBV DNA levels (EC50). The EC50 for antiviral activity is calculated from the dose response curves of active compounds. Assay performance over time is monitored by the use of the standard positive control compounds ETV, BAY 41-4109, and HAP-1.
# Selected compounds are tested for their activity and toxicity in cellular assay. In the first anti-viral assay, the ability of compounds to inhibit HBV replication in an HBV-producing hepatoma cell line using the dot-blot method is evaluated.
# as §1, with “Confluent monolayers” for “Briefly, confluent monolayers”, “lysis was” for “lysis is”
row,Structure (SMILES),EC50 [µM]
1,"Cc1cc(NC(=O)c2ccc(F)c(SC3CCCC3)c2)ccc1F [Compound 9, 3-(Cyclopentylthio)-4-fluoro-N-(4-fluoro-3-methylphenyl)benzamide]",< 10
2,"COc1ccc(C(=O)Nc2ccc(F)c(F)c2)cc1SC1CCC(O)CC1 (mixture of isomers) [Compound 89, (cis/trans)-N-(3,4-Difluorophenyl)-3-((4-hydroxycyclohexyl)thio)-4-methoxybenzamide]",< 10
3,"O=C(Nc1ccc(F)c(Cl)c1)c1ccnc(NS(=O)(=O)CC2CCCC2)c1 [Compound 150, N-(3-Chloro-4-fluorophenyl)-2-(cyclopentylmethylsulfonamido)isonicotinamide]",< 10
4,"O=C1CCCCC(Sc2cc(C(=O)Nc3cc(F)c(F)c(F)c3)ccc2F)C1 (racemic) [Compound 12, (±)-4-Fluoro-3-((3-oxocydoheptyl)thio)-N-(3,4,5-trifluorophenyl)benzamide]",< 10
5,"CCCS(=O)(=O)Nc1cc(C(=O)Nc2ccc(F)c(Cl)c2)ccn1 [Compound 133, N-(3-Chloro-4-fluorophenyl)-2-(propylsulfonamido)isonicotinamide]",< 10
6,"O=C(Nc1ccc(F)c(Cl)c1)c1ccc(F)c(SC2COC2)c1 [Compound 65, N-(3-Chloro-4-fluorophenyl)-4-fluoro-3-(oxetan-3-ylthio)benzamide]",< 10
7,"O=C(Nc1ccc(F)c(Cl)c1)c1ccc(F)c(S[C@H]2CC[C@H](O)C2)c1 (racemic) [Compound 25, (±)-N-(3-Chloro-4-fluorophenyl)-4-fluoro-3-(((1S,3S)-3-hydroxycyclopentyl)thio)benzamide]",< 10
8,"COCCS(=O)(=O)Nc1cccc(C(=O)Nc2ccc(F)c(Cl)c2)c1 [Compound 198, N-(3-chloro-4-fluorophenyl)-3-(2-methoxyethylsulfonamido)benzamide]",< 10
9,"O=C(Nc1ccc(F)c(Cl)c1)c1ccc(F)c(SC2CCCCCC2)c1 [Compound 52, N-(3-Chloro-4-fluorophenyl)-3-(cycloheptylthio)-4-fluorobenzamide]",< 10
10,"COc1ccc(C(=O)Nc2ccc(F)c(Cl)c2)cc1SC1CCC(O)CC1 (mixture of isomers) [Compound 70, (cis/trans)-N-(3-Chloro-4-fluorophenyl)-3-((4-hydroxycyclohexyl)thio)-4-methoxybenzamide]",< 10
11,"O=C(Nc1ccc(F)c(Cl)c1)c1cc(F)nc(NS(=O)(=O)C2CC2)c1 [Compound 137, N-(3-Chloro-4-fluorophenyl)-2-(cyclopropanesulfonamido)-6-fluoroisonicotinamide]",< 10
12,"O=C(Nc1cc(F)c(F)c(F)c1)c1ccnc(NS(=O)(=O)C2CC2)c1 [Compound 127, 2-(Cyclopropanesulfonamido)-N-(3,4,5-trifluorophenyl)isonicotinamide]",< 10
13,"O=C(Nc1ccc(F)c(Cl)c1)c1ccc(F)c(SC2CCCOC2)c1 (racemic) [Compound 64, (±)-N-(3-Chloro-4-fluorophenyl)-4-fluoro-3-((tetrahydro-2H-pyran-3-yl)thio)benzamide]",< 10
14,CCS(=O)(=O)Nc1cc(C(=O)Nc2ccc(F)c(Cl)c2)ccn1 [Compound 131],< 10
15,"CC(C)S(=O)(=O)Nc1cc(C(=O)Nc2ccc(F)c(Cl)c2)ccn1 [Compound 163, N-(3-Chloro-4-fluorophenyl)-2-(1-methylethylsulfonamido)isonicotinamide]",< 10
16,"O=C(Nc1ccc(F)c(Cl)c1)c1cccc(NS(=O)(=O)c2cccs2)c1 [Compound 199, N-(3-chloro-4-fluorophenyl)-3-(thiophene-2-sulfonamido)benzamide]",< 10
17,"O=C1CCCCC(Sc2cc(C(=O)Nc3ccc(F)c(Cl)c3)ccc2F)C1 (racemic) [Compound 13, (±)-N-(3-Chloro-4-fluorophenyl)-4-fluoro-3-((3-oxocycloheptyl)thio)benzamide]",< 10
18,"N#Cc1ccc(C(=O)Nc2ccc(F)c(Cl)c2)cc1SC1CCC(O)CC1 (mixture of isomers) [Compound 95, (cis/trans)-N-(3-Chloro-4-fluorophenyl)-4-cyano-3-((4-hydroxycyclohexyl)thio)benzamide]",< 10

row,Structure (SMILES),EC50 [µM]
1,"O=C(Nc1cc(F)c(F)c(F)c1)c1ccc(F)c(SCC2CCC(C(=O)O)CC2)c1 (mixture of isomers) [Compound 110, (cis/trans)-4-(((5-((3,4,5-trifluorophenyl)carbamoyl)-2-fluorophenyl)thio)methyl)cyclohexanecarboxylic acid]",< 10
2,"O=C(Nc1cc(F)c(F)c(F)c1)c1ccc(F)c(SCCCCO)c1 [Compound 23, 4-Fluoro-3-((4-hydroxybutyl)thio)-N-(3,4,5-trifluorophenyl)benzamide]",< 10
3,"O=C(Nc1cc(F)c(F)c(F)c1)c1ccc(F)c(SC2CCCCC(F)C2)c1 (racemic) [Compound 15, (±)-4-Fluoro-3-((3-fluorocycloheptyl)thio)-N-(3,4,5-trifluorophenyl)benzamide]",< 10
4,"O=C(Nc1ccc(F)c(Cl)c1)c1cccc(NS(=O)(=O)C2CS(=O)(=O)CC2O)c1 (racemic) [Compound 206, (±)-N-(3-chloro-4-fluorophenyl)-3-(4-hydroxy-1,1-dioxidotetrahydrothiophene-3-sulfonamido)benzamide]",< 10
5,"O=C(Nc1ccc(F)c(Cl)c1)c1ccnc(NS(=O)(=O)C2CCCCC2)c1 [Compound 134, N-(3-Chloro-4-fluorophenyl)-2-(cyclohexanesulfonamido)isonicotinamide]",< 10
6,"O=C(O)CC1CCC(Sc2cc(C(=O)Nc3cc(F)c(F)c(F)c3)ccc2F)C1 (racemic) [Compound 101, (±)-2-(3-((2-Fluoro-5-((3,4,5-trifluorophenyl)carbamoyl)phenyl)thio)cyclopentyl)acetic acid]",< 10
7,"N#Cc1ccc(C(=O)Nc2ccc(F)c(F)c2)cc1SC1CCC(O)CC1 (mixture of isomers) [Compound 93, (cis/trans)-4-Cyano-N-(3,4-difluorophenyl)-3-((4-hydroxycyclohexyl)thio)benzamide]",< 10
8,"O=C(Nc1ccc(F)c(Cl)c1)c1ccnc(NS(=O)(=O)c2cccs2)c1 [Compound 141, N-(3-Chloro-4-nuorophenyl)-2-(thiophene-2-sulfonamido)isonicotinamide]",< 10
9,"O=C(Nc1ccc(F)c(Cl)c1)c1cccc(NS(=O)(=O)CC2CCCO2)c1 (racemic) [Compound 203, (±)-N-(3-chloro-4-fluorophenyl)-3-((tetrahydrofuran-2-yl)methylsulfonamido)benzamide]",< 10
10,"CC(C)(C)CS(=O)(=O)Nc1cc(C(=O)Nc2ccc(F)c(Cl)c2)ccn1 [Compound 164, N-(3-Chloro-4-fluorophenyl)-2-(2,2-dimethylpropylsulfonamido)isonicotinamide]",< 10
11,"O=C(Nc1ccc(F)c(Cl)c1)c1cccc(NS(=O)(=O)N2CCC(OCc3ccccc3)CC2)c1 [Compound 207, 3-(4-(benzyloxy)piperidine-1-sulfonamido)-N-(3-chloro-4-fluorophenyl)benzamide]",< 10
12,"O=C(Nc1cc(F)c(F)c(F)c1)c1ccc(F)c(SCCO)c1 [Compound 7, 4-Fluoro-3-((2-hydroxyethyl)thio)-N-(3,4,5-trifluorophenyl)benzamide]",< 10
13,"O=C(Nc1ccc(F)c(Cl)c1)c1ccc(F)c(SC2CC(C(=O)O)C2)c1 (mixture of isomers) [Compound 58, (cis/trans)-3-((5-((3-Chloro-4-fluorophenyl)carbamoyl)-2-fluorophenyl)thio)cyclobutanecarboxylic acid]",< 10
14,"Cc1ccc(CS(=O)(=O)Nc2cc(C(=O)Nc3ccc(F)c(Cl)c3)ccn2)cc1 [Compound 152, N-(3-Chloro-4-fluorophenyl)-2-(p-tolylmethylsulfonamido)isonicotinamide]",< 10
15,"O=C(Nc1ccc(F)c(Cl)c1)c1ccc(F)c(SCC2CCOCC2)c1 [Compound 47, N-(3-Chloro-4-fluorophenyl)-4-fluoro-3-(((tetrahydro-2H-pyran-4-yl)methyl)thio)benzamide]",< 10
16,"O=C(Nc1ccc(F)c(Cl)c1)c1ccc(F)c(SCCCO)c1 [Compound 27, N-(3-Chloro-4-fluorophenyl)-4-fluoro-3-((3-hydroxypropyl)thio)benzamide]",< 10
17,"O=C(O)CC1CCC(Sc2cc(C(=O)Nc3cc(F)c(F)c(F)c3)ccc2F)CC1 (mixture of isomers) [Compound 107, (cis/trans)-2-(4-((5-((3,4,5-trifluorophenyl)carbamoyl)-2-fluorophenyl)thio)cyclohexyl)acetic acid]",< 10
18,"O=C(O)CC1CCC(Sc2cc(C(=O)Nc3ccc(F)c(Cl)c3)ccc2F)C1 (racemic) [Compound 102, (±)-2-(3-((5-((3-Chloro-4-fluorophenyl)carbamoyl)-2-fluorophenyl)thio)cyclopentyl)acetic acid]",< 10
